Source: PMC10215143, “D- and N-Methyl Amino Acids for Modulating the Therapeutic Properties of Antimicrobial Peptides and Lipopeptides” (Antibiotics, 2023)
In brackets after ≈: the same amount, converted by molar mass. Several values for one entry are separate records, joined by “and”; a condition that tells them apart may be missing. Equal entries are not always repeated. Where two headings read alike, the source gives them in different places. Where a SMILES comes first, the peptide text is derived from it. [ ]: non-standard residue; d: D form. The star is where a group is joined. NMeF = CN[C@@H](Cc1ccccc1)C(=O)O; NMeK = CN[C@@H](CCCCN)C(=O)O; Decanoyl = CCCCCCCCCC(=O)*

Tests used:
Yeast = details: for MIC Average Yeast: 24 h; for TI Yeast, HC50/MIC average: first value of the cell, a single value holds for HC50 and IC50 (400 µM used); for TI Yeast, IC50/MIC average: second value of the cell, HeLa IC50 based
Method: Each inoculum was taken and the cellular concentration was adjusted to 2 × 10^3 CFU/mL in Sabouraud Dextrose Broth (SDB) (Biokar Diagnostics, Cedex, France). Next, 50 µL of these inocula was added to 50 µL of peptide solution in serial 2-fold dilutions. […] The MIC was considered the lowest peptide concentration that inhibited visible growth of each yeast strain. The test was conducted in triplicate.
(§1) The TI is defined as the relationship between the concentration that caused 50% of hemolysis (HC50) or a 50% reduction in HeLa cell viability and the MIC. Thus, higher TI values indicate greater antimicrobial specificity. […] The average MIC for each peptide against different microorganism groups was used to calculate the TI value.

[1] = tested on: S. aureus RM * SA1 (Methicillin-resistant Staphylococcus aureus); details: S. aureus RM * SA1 (MRSA)
E. coli ATCC 35218 = assay type: cell-based, Escherichia coli; details: ATCC 35218, 24 h
Method: (§2) The test was conducted in triplicate.

S. aureus ATCC 25923 = assay type: cell-based, Staphylococcus aureus; details: ATCC 25923, 24 h
Method: as §2

C. albicans PEEC 2 = assay type: cell-based, Candida albicans; details: PEEC 2, 24 h
Method: (§3) Each inoculum was taken and the cellular concentration was adjusted to 2 × 10^3 CFU/mL in Sabouraud Dextrose Broth (SDB) (Biokar Diagnostics, Cedex, France). Next, 50 µL of these inocula was added to 50 µL of peptide solution in serial 2-fold dilutions. […] […] The test was conducted in triplicate.

Human erythrocytes = experiment: Hemolysis assay; assay type: cell-based; details: human erythrocytes 0.4% (v/v), 37 °C, 60 min, 6.25 to 400 µM
Method: Hemolytic activity was determined using red blood cells and the hemoglobin released was measured at 405 nm. The percentage of hemolysis corresponding to the synthetic compounds is shown in Figure 1 while the HC50 values are provided in Table 3. […] Substitutions by N-methyl and D-amino acids reduced the hemolytic activity of the peptides and lipopeptides. […] For all the peptides and most of the lipopeptides, the HC50 values exceeded 400 μM. Indeed, the HC50 values were lower only for C10:0-A2(9-NMeLys) and C10:0-A2, which were around 300 and 200 μM, respectively.
Erythrocyte lysis was determined using the following previously optimized protocols. Human erythrocytes from a healthy voluntary donor were isolated by centrifugation (3000 rpm for 10 min) after washing three times with Physiological Solution (PS). Erythrocyte solutions were prepared at a concentration of 0.4% (v/v) in PS. Test tubes containing 200 µL of erythrocyte solution were incubated at 37 °C for 60 min with 200 µL of peptide solution at concentrations ranging from 6.25 to 400 µM. After centrifugation at 3000 rpm for 5 min, supernatant absorbance was measured at 405 nm. Lysis induced by 1% Triton X-100 was taken as a 100% reference value.

HeLa cells = details: 24 h
Method: We assessed the cytotoxicity of the compounds synthesized using HeLa cells.
The 3–4,5-dimethylthiazol-2,5-biphenyl tetrazolium bromide (MTT) cell viability assay was used to assess the cytotoxic activity of synthetic compounds against the human HeLa line. HeLa cells were seeded in 96-well plates at 1 × 10^5 cells/well, in which the peptide solution was added at different concentrations (3.125–400 μM) for 24 h of incubation. Next, MTT reagent (Sigma-Aldrich, St. Louis, MO, USA) was added, and the cells were incubated for 2 h. Then, 100 μL of dimethylsulfoxide (DMSO) was added to each well to dissolve formazan crystals, and the plates were read at 595 nm.

E. faecalis ATCC 29212 = assay type: cell-based, Enterococcus faecalis; details: ATCC 29212, 24 h
Method: as §2

[2] = Critical micelle concentration by conductimetry in Milli-Q water; assay type: physicochemical; details: 25 °C
Method: On the other hand, acylation confers that the peptide has capacity to self-assemble into nanostructures, resulting in a surfactant-like structure, which may affect the extent of peptide insertion and disruption of bacterial membrane integrity. In this work, the CMC of the lipopeptides was determined by conductimetry in Milli-Q water. All the lipopeptides adopted a micellar assembly with CMC values ranging from 2.0 to 5.7 mM (Table 1). […] This effect appeared to be more important when substitution by an N-methyl amino acid was performed on amino acids located on the non-polar face of the amphipathic helix (CMC values of C10:0-A2(8-NMePhe) = 2.01 mM). For all the lipopeptides, the CMC values remained above the MIC values, which could indicate that these molecules interact with the cell membrane as monomers and, consequently, that this property would not be necessary for antimicrobial activity. This notion is in concordance with reports in the literature on short cationic lipopeptides.
A lipopeptide solution was prepared in Milli Q water, and the specific conductivity of each lipopeptide solution, in a concentration ranging from 0.06 to 18 mg/mL, was measured using a drop conductivity meter (HORIBA, Kyoto, Japan), at 25 °C. Conductivity values were plotted vs. lipopeptide concentration (mS × cm^−1 vs. mg/mL), and the CMC was graphically determined.

C. tropicalis DBFIQ 3 = assay type: cell-based, Candida tropicalis; details: DBFIQ 3, 24 h
Method: as §3

Gram (+) bacteria = details: for MIC Average Bacteria Gram (+): average over Gram (+) strains; for TI Bacteria Gram (+), HC50/MIC average: first value of the cell, a single value holds for HC50 and IC50 (400 µM used); for TI Bacteria Gram (+), IC50/MIC average: second value of the cell, HeLa IC50 based
Method: (§4) The MIC against bacterial strains was determined by the modified broth microtiter dilution method, following the procedures proposed by R.E.W. Hancock Laboratory for testing antimicrobial peptides. The target strains Escherichia coli ATCC 35218, Pseudomonas aeruginosa ATCC 27853, Enterococcus faecalis ATCC 29212, and Staphylococcus aureus ATCC 25923 belong to the American Type Culture Collection (ATCC). The Methicillin-Resistant Staphylococcus aureus BSF FBCB1313 strain (MRSA) was provided by the Clinical Bacteriology Section of FBCB-UNL. All strains were activated by culture for 24 h at 37 °C in Mueller-Hinton Broth (MHB) (Biokar Diagnostics, Cedex, France). Each inoculum was taken and adjusted to a cellular concentration of 5 × 10^5 colony-forming units (CFU)/mL in diluted MHB. All the peptides were dissolved in bovine serum albumin buffer with the addition of 0.01% acetic acid; 100 µL of each inoculum was added to 11 µL of peptide solution in serial 2-fold dilutions and were incubated for 18–24 h at 37 °C. The MIC was the lowest peptide concentration that inhibited visible growth of each bacterial strain. The test was conducted in triplicate.
as §1

Gram (−) bacteria = details: for MIC Average Bacteria Gram (−): average over Gram (−) strains; for TI Bacteria Gram (−), HC50/MIC average: first value of the cell, a single value holds for HC50 and IC50 (400 µM used); for TI Bacteria Gram (−), IC50/MIC average: second value of the cell, HeLa IC50 based
Method: as §4, §1

P. aeruginosa ATCC 27853 = assay type: cell-based, Pseudomonas aeruginosa; details: ATCC 27853, 24 h
Method: as §2

Row | SMILES | MIC Average Yeast (Yeast) [µM] | TI Yeast, HC50/MIC average (Yeast) | MIC [1] [µM] | MIC (E. coli ATCC 35218) [µM] | MIC (S. aureus ATCC 25923) [µM] | MIC (C. albicans PEEC 2) [µM] | HC50 ± SD (Human erythrocytes) [µM] | IC50 (HeLa cells) [µM] | MIC (E. faecalis ATCC 29212) [µM] | CMC [2] [mM] | MIC (C. tropicalis DBFIQ 3) [µM] | MIC Average Bacteria Gram (+) (Gram (+) bacteria) [µM] | TI Bacteria Gram (+), HC50/MIC average (Gram (+) bacteria) | MIC Average Bacteria Gram (−) (Gram (−) bacteria) [µM] | TI Bacteria Gram (−), HC50/MIC average (Gram (−) bacteria) | MIC (P. aeruginosa ATCC 27853) [µM] | TI Yeast, IC50/MIC average (Yeast) | IC50 (HeLa cells; read-out: IC50 ± SD, HeLa cells, MTT, 3.125–400 μM) | TI Bacteria Gram (+), IC50/MIC average (Gram (+) bacteria) | TI Bacteria Gram (−), IC50/MIC average (Gram (−) bacteria)
1 | CCCCCCCCCC(=O)N[C@H](C(=O)N[C@@H](CCCCN)C(=O)N[C@@H](CCC(N)=O)C(=O)N[C@H](C(=O)N[C@@H](CCCCN)C(=O)N(C)[C@@H](CCCCN)C(=O)N[C@@H](CC(C)C)C(=O)N[C@@H](Cc1ccccc1)C(=O)N[C@@H](CCCCN)C(=O)N[C@@H](CCCCN)C(N)=O)C(C)C)[C@@H](C)CC [C10:0-A2(6-NMeLys), C10:0-IKQVK(NMe-K)LFKK-NH2] (Decanoyl-IKQVK[NMeK]LFKK-NH2) | 67.3 (≈ 96 µg/mL) | 5.9 | 5.6 (≈ 7.99 µg/mL) | 1.4 (≈ 2 µg/mL) | 1.4 (≈ 2 µg/mL) | 44.9 (≈ 64.1 µg/mL) | >400 | 400 ± 29 | 5.6 (≈ 7.99 µg/mL) | 3.63 | 89.7 (≈ 128 µg/mL) | 4.2 (≈ 5.99 µg/mL) | 95.2 | 1.1 (≈ 1.57 µg/mL) | 363.6 | 0.7 (≈ 0.999 µg/mL) |  |  |  | 
2 | CCCCCCCCCC(=O)N[C@H](C(=O)N[C@@H](CCCCN)C(=O)N[C@@H](CCC(N)=O)C(=O)N[C@H](C(=O)N(C)[C@@H](CCCCN)C(=O)N[C@@H](CCCCN)C(=O)N[C@@H](CC(C)C)C(=O)N[C@@H](Cc1ccccc1)C(=O)N[C@@H](CCCCN)C(=O)N[C@@H](CCCCN)C(N)=O)C(C)C)[C@@H](C)CC [C10:0-A2(5-NMeLys), C10:0-IKQV(NMe-K)KLFKK-NH2] (Decanoyl-IKQV[NMeK]KLFKK-NH2) | 179.5 (≈ 256 µg/mL) | 2.2 | 5.6 (≈ 7.99 µg/mL) | 2.8 (≈ 4 µg/mL) | 2.8 (≈ 4 µg/mL) | 179.5 (≈ 256 µg/mL) | >400 | > 400 | 11.2 (≈ 16 µg/mL) | 3.73 | 179.5 (≈ 256 µg/mL) | 6.5 (≈ 9.28 µg/mL) | 61.5 | 4.2 (≈ 5.99 µg/mL) | 95.2 | 5.6 (≈ 7.99 µg/mL) |  |  |  | 
3 | CC(C)C[C@H](NC(=O)[C@H](CCCCN)NC(=O)[C@H](CCCCN)NC(=O)[C@H](Cc1ccccc1)N(C)C(=O)[C@H](CC(C)C)NC(=O)[C@H](CCCCN)NC(=O)[C@H](CCCCN)NC(=O)[C@H](Cc1ccccc1)N(C)C(=O)[C@H](CC(C)C)NC(=O)[C@@H](N)CCCCN)C(=O)N[C@@H](Cc1ccccc1)C(=O)N[C@@H](CCCCN)C(N)=O [TA4(3,7-NMePhe), KL(NMeF)KKL(NMeF)KKLFK-NH2] (H-KL[NMeF]KKL[NMeF]KKLFK-NH2; N-terminus assumed) | 80.2 (≈ 128 µg/mL) | 5.0 | 10.0 (≈ 16 µg/mL) | 5.0 (≈ 7.98 µg/mL) | 5.0 (≈ 7.98 µg/mL) | 80.2 (≈ 128 µg/mL) | >400 | 86.6 ± 7.35 | 40.0 (≈ 63.8 µg/mL) |  | 80.2 (≈ 128 µg/mL) |  | 14.1 | 3.1 (≈ 4.94 µg/mL) | 129.0 | 1.2 (≈ 1.91 µg/mL) | 1.1 | ~86 µM and 86 µM | 3.1 | 27.9
4 | CCCCCCCCCC(=O)N[C@H](C(=O)N[C@@H](CCCCN)C(=O)N[C@@H](CCC(N)=O)C(=O)N[C@H](C(=O)N[C@@H](CCCCN)C(=O)N[C@@H](CCCCN)C(=O)N[C@@H](CC(C)C)C(=O)N[C@@H](Cc1ccccc1)C(=O)N(C)[C@@H](CCCCN)C(=O)N[C@@H](CCCCN)C(N)=O)C(C)C)[C@@H](C)CC [C10:0-A2(9-NMeLys), C10:0-IKQVKKLF(NMe-K)K-NH2] (Decanoyl-IKQVKKLF[NMeK]K-NH2) | 134.6 (≈ 192 µg/mL) | 2.2 | 2.8 (≈ 4 µg/mL) | 2.8 (≈ 4 µg/mL) | 2.8 (≈ 4 µg/mL) | 89.7 (≈ 128 µg/mL) |  | > 400 | 5.6 (≈ 7.99 µg/mL) | 3.90 | 179.5 (≈ 256 µg/mL) | 3.7 (≈ 5.28 µg/mL) | 80.7 | 1.8 (≈ 2.57 µg/mL) | 165.8 | 0.7 (≈ 0.999 µg/mL) | 3.0 |  | 108.1 | 222.2
5 | CCCCCCCCCC(=O)N[C@H](C(=O)N[C@@H](CCCCN)C(=O)N[C@@H](CCC(N)=O)C(=O)N[C@H](C(=O)N[C@@H](CCCCN)C(=O)N[C@@H](CCCCN)C(=O)N[C@@H](CC(C)C)C(=O)N(C)[C@@H](Cc1ccccc1)C(=O)N[C@@H](CCCCN)C(=O)N[C@@H](CCCCN)C(N)=O)C(C)C)[C@@H](C)CC [C10:0-A2(8-NMePhe), C10:0-IKQVKKL(NMe-F)KK-NH2] (Decanoyl-IKQVKKL[NMeF]KK-NH2) | 179.5 (≈ 256 µg/mL) | 2.2 | 5.6 (≈ 7.99 µg/mL) | 11.2 (≈ 16 µg/mL) | 2.8 (≈ 4 µg/mL) | 179.5 (≈ 256 µg/mL) | >400 | > 400 | 11.2 (≈ 16 µg/mL) | 2.01 | 179.5 (≈ 256 µg/mL) | 6.5 (≈ 9.28 µg/mL) | 61.5 | 8.4 (≈ 12 µg/mL) | 47.6 | 5.6 (≈ 7.99 µg/mL) |  |  |  | 
